Experiments:
[1] = tested on: Japonica rice; assay: Test E paddy water application plant response rating 0 to 100; assay type: in vivo, oryza sativa; conditions: Flood, 0 to 100 scale, approx. 21 days
From the text: (§1) Plastic pots were partially filled with silt loam soil. […] At testing, the water level for all plantings was raised to 2 cm above the soil surface. Chemical treatments were formulated in a non-phytotoxic solvent and applied directly to the paddy water. Treated plants and controls were maintained in a greenhouse for approximately 21 days, after which all species were compared to controls and visually evaluated. […] A dash (-) response means no test result.

[2] = tested on: barnyardgrass; assay: as above; assay type: in vivo, Echinochloa crus-galli; conditions: Flood, 0 to 100 scale, approx. 21 days
From the text: as §1

[3] = tested on: duck salad; assay: Test D paddy water application plant response rating 0 to 100; assay type: in vivo, Heteranthera limosa; conditions: 0 to 100 scale, approx. 21 days
From the text: (§2) Plastic pots were partially filled with silt loam soil. The soil was then saturated with water. […] After planting, water levels were raised to 3 cm above the soil surface and maintained at this level throughout the test. Chemical treatments were formulated in a non-phytotoxic solvent and applied directly to the paddy water. Treated plants and controls were maintained in a greenhouse for approximately 21 days, after which all species were compared to controls and visually evaluated. […] A dash (-) response means no test result.

[4] = tested on: Japonica rice; assay: as above; assay type: in vivo, Oryza sativa; conditions: 0 to 100 scale, approx. 21 days
From the text: as §2

[5] = tested on: barnyardgrass; assay: as above; assay type: in vivo, Echinochloa crus-galli; conditions: 0 to 100 scale, approx. 21 days
From the text: as §2

[6] = tested on: umbrella sedge; assay: as above; assay type: in vivo, Cyperus difformis; conditions: 0 to 100 scale, approx. 21 days
From the text: as §2

[7] = tested on: arrowhead; assay: as above; assay type: in vivo, Sagittaria spp.; conditions: 0 to 100 scale, approx. 21 days
From the text: as §2

C=CCN1C(=O)COc2cc(F)c(-c3nn4c(c3Br)CCCC4)cc21 [Compound 41]
Japonica 1 plant response rating ([1]; Rate 8 g/ha): 25 | Japonica 2 plant response rating ([1]; Rate 8 g/ha): 15 | Japonica 1 plant response rating ([1]; Rate 16 g/ha): 35 | Japonica 2 plant response rating ([1]; Rate 16 g/ha): 20 | Japonica 1 plant response rating ([1]; Rate 32 g/ha): 45 | Japonica 2 plant response rating ([1]; Rate 32 g/ha): 30 | Japonica 1 plant response rating ([1]; Rate 64 g/ha): 65 | Japonica 2 plant response rating ([1]; Rate 64 g/ha): 45 | Japonica 1 plant response rating ([1]; Rate 125 g/ha): 95 | Japonica 2 plant response rating ([1]; Rate 125 g/ha): 55 | Barnyardgrass 2 plant response rating ([2]; Rate 8 g/ha): 25 | Barnyardgrass 3 plant response rating ([2]; Rate 8 g/ha): 20 | Barnyardgrass 2 plant response rating ([2]; Rate 16 g/ha): 30 | Barnyardgrass 3 plant response rating ([2]; Rate 16 g/ha): 25 | Barnyardgrass 2 plant response rating ([2]; Rate 32 g/ha): 55 | Barnyardgrass 3 plant response rating ([2]; Rate 32 g/ha): 35 | Barnyardgrass 2 plant response rating ([2]; Rate 64 g/ha): 65 | Barnyardgrass 3 plant response rating ([2]; Rate 64 g/ha): 45 | Barnyardgrass 2 plant response rating ([2]; Rate 125 g/ha): 98 | Barnyardgrass 3 plant response rating ([2]; Rate 125 g/ha): 55

CC(C)N1C(=O)COc2cc(F)c(-c3nn4c(c3Cl)CCCC4)cc21 [Compound 31]
Duck salad plant response rating ([3]; Rate 4 g/ha): 0 | Duck salad plant response rating ([3]; Rate 8 g/ha): 0 | Duck salad plant response rating ([3]; Rate 16 g/ha): 0 | Duck salad plant response rating ([3]; Rate 32 g/ha): 0 | Duck salad plant response rating ([3]; Rate 64 g/ha): 0 | Japonica rice plant response rating ([4]; Rate 4 g/ha): 10 | Japonica rice plant response rating ([4]; Rate 8 g/ha): 15 | Japonica rice plant response rating ([4]; Rate 16 g/ha): 20 | Japonica rice plant response rating ([4]; Rate 32 g/ha): 25 | Japonica rice plant response rating ([4]; Rate 64 g/ha): 30 | Barnyardgrass 2 plant response rating ([5]; Rate 4 g/ha): 0 | Barnyardgrass 2 plant response rating ([5]; Rate 8 g/ha): 0 | Barnyardgrass 2 plant response rating ([5]; Rate 16 g/ha): 30 | Barnyardgrass 2 plant response rating ([5]; Rate 32 g/ha): 40 | Barnyardgrass 2 plant response rating ([5]; Rate 64 g/ha): 60 | Umbrella sedge plant response rating ([6]; Rate 4 g/ha): 0 | Umbrella sedge plant response rating ([6]; Rate 8 g/ha): 0 | Umbrella sedge plant response rating ([6]; Rate 16 g/ha): 20 | Umbrella sedge plant response rating ([6]; Rate 32 g/ha): 65 | Umbrella sedge plant response rating ([6]; Rate 64 g/ha): 75 | Arrowhead plant response rating ([7]; Rate 4 g/ha): 50 | Arrowhead plant response rating ([7]; Rate 8 g/ha): 60 | Arrowhead plant response rating ([7]; Rate 16 g/ha): 85 | Arrowhead plant response rating ([7]; Rate 32 g/ha): 100 | Arrowhead plant response rating ([7]; Rate 64 g/ha): 100
